# Results published in US20070142401A1, “Indolyl-pyrroledione derivatives for the treatment of neurological and vascular disorders related to beta-amyloid generation and/or aggregation” (NOVARTIS AG, priority 2003, published 2007).
# Columns and labels:
# Flt-3 = biological target: T1, Flt-3 (Homo sapiens, UniProt P36888); assay: cell-free enzyme assay Flt-3; assay type: biochemical
# T1 sequence (P36888 27-993): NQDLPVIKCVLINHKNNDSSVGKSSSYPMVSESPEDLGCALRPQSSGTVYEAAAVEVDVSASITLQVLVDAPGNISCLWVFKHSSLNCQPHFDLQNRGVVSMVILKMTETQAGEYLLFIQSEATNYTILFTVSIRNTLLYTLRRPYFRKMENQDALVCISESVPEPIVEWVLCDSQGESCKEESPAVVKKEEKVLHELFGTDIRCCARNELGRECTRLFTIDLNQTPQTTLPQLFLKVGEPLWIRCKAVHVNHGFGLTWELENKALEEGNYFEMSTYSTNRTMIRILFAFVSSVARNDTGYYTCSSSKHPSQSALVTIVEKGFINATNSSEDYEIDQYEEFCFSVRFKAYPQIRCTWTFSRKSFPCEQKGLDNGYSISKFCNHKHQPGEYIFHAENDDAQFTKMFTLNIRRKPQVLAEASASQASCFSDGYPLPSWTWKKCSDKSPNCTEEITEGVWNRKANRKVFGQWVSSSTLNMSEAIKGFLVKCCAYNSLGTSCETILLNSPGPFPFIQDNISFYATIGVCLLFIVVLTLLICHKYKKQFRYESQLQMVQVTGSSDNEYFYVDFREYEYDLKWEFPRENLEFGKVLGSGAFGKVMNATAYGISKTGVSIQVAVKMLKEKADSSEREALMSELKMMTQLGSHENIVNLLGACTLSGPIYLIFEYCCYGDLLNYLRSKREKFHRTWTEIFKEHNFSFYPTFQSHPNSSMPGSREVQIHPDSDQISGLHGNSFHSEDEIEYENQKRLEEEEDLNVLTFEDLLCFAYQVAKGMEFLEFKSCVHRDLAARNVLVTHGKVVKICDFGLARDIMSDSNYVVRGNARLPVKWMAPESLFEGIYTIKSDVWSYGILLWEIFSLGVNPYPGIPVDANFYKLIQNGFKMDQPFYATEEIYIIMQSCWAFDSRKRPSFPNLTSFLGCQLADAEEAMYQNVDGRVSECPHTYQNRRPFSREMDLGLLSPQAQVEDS
# PKC epsilon = biological target: T2, PKC epsilon (Homo sapiens, UniProt Q02156); assay: cell-free enzyme assay PKC epsilon; assay type: biochemical
# T2 sequence (Q02156 1-737): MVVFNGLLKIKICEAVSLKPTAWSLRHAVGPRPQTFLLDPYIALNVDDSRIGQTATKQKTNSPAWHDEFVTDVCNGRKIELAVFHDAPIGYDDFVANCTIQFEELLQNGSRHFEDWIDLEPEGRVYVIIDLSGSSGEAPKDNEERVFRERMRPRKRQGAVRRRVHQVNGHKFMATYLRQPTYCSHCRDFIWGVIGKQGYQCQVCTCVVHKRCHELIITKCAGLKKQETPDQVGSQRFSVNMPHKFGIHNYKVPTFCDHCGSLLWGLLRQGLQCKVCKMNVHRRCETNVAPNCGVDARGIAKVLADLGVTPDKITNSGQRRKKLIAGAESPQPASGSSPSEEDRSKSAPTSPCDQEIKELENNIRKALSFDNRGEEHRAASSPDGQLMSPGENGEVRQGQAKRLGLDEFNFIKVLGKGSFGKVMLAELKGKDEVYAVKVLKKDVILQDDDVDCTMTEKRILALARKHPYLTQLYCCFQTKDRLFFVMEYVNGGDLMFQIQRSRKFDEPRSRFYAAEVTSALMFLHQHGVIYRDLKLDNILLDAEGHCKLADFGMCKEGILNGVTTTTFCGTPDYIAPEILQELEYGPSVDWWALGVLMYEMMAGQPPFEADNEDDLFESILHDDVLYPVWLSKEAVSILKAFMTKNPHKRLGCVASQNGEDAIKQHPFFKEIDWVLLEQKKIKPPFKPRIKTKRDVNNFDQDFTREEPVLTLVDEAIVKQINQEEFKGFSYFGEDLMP
# [1] = system: Aβ secretion in HEK/APPswe cells; assay: Aβ secretion in HEK/APPswe cell culture medium (sandwich ELISA); assay type: cell-based; conditions: HEK/APPswe cell cultures, 24 hours after compound addition
# Procedure: HEK/APPswe cells are plated in microtiter plates precoated with 10 μg/ml poly-D-lysine at 12′000 cells/well in 100 μl/well DMEM medium supplemented with 10% FCS, 0.25 mg/ml G418 sulfate, 1% penicillin streptomycin. The following day, supernatant is replaced with 90 μl/well of fresh medium and 10 μl/well of compound diluted in culture medium are added. Two types of control wells are used: cell culture medium without cells plus 10 μl/well of all compound dilutions (background signals) and cell culture medium from untreated cells (positive control). 24 hours later after compound addition, conditioned medium is collected and Aβ levels determined by a specific sandwich ELISA.
# For the sandwich ELISA, the maxisorp microtiterplates are coated overnight at 4° C. with 100 μl/well of the monoclonal antibody 25H 10 diluted 1:1000 in PB for Aβ40 detection or monoclonal antibody B10E7 diluted 1:2750 for detection of Aβ42. […] After 1 hour incubation at room temperature wells are washed as described above and alkaline phosphatase activity is determined by adding 100 μl/well of diethanolamine buffer, pH 9.8 (100 mM diethanolamine, 1 mM MgCl2, pH adjusted to 9.8 with 2 M HCl) containing the chemiluminescent CSPD substrate (25 mM stock solution diluted 1:416) and the enhancer Emerald II (diluted 1:10). […] Samples are measured in triplicate. […]
# PKC alpha = PKC alpha (Homo sapiens, UniProt P17252); assay: cell-free enzyme assay PKC alpha; assay type: biochemical
# HEK/APPswe cells = assay: MTS assay (cytotoxicity); assay type: cell-based; conditions: at concentrations below 1 microM
# Procedure: To determine cytotoxicity, cells are tested by the MTS colorimetric kit performed essentially according to the manufacturer's specifications (Promega, #G5430X). After collecting the conditioned medium for the sandwich ELISA, the rest of the conditioned medium is removed completely and replaced with 100 μl/well culture medium containing one fifth of MTS solution prepared as recommended in the kit. After 3 hours incubation at 37° C., absorbance is read at an OD of 490 nm with a reference wavelength set to 630 nm. Values are given as % metabolic rate (n=6). The 0% value is calculated from wells which had no cells, 100% from wells with an untreated cell layer
# CDK-1 = CDK-1 (Homo sapiens, UniProt P06493); assay: cell-free enzyme assay CDK-1; assay type: biochemical
# Flt-1 = Flt-1 (Homo sapiens, UniProt P17948); assay: cell-free enzyme assay Flt-1; assay type: biochemical
# Sequence of Flt-1 (P17948 27-1338, species assumed): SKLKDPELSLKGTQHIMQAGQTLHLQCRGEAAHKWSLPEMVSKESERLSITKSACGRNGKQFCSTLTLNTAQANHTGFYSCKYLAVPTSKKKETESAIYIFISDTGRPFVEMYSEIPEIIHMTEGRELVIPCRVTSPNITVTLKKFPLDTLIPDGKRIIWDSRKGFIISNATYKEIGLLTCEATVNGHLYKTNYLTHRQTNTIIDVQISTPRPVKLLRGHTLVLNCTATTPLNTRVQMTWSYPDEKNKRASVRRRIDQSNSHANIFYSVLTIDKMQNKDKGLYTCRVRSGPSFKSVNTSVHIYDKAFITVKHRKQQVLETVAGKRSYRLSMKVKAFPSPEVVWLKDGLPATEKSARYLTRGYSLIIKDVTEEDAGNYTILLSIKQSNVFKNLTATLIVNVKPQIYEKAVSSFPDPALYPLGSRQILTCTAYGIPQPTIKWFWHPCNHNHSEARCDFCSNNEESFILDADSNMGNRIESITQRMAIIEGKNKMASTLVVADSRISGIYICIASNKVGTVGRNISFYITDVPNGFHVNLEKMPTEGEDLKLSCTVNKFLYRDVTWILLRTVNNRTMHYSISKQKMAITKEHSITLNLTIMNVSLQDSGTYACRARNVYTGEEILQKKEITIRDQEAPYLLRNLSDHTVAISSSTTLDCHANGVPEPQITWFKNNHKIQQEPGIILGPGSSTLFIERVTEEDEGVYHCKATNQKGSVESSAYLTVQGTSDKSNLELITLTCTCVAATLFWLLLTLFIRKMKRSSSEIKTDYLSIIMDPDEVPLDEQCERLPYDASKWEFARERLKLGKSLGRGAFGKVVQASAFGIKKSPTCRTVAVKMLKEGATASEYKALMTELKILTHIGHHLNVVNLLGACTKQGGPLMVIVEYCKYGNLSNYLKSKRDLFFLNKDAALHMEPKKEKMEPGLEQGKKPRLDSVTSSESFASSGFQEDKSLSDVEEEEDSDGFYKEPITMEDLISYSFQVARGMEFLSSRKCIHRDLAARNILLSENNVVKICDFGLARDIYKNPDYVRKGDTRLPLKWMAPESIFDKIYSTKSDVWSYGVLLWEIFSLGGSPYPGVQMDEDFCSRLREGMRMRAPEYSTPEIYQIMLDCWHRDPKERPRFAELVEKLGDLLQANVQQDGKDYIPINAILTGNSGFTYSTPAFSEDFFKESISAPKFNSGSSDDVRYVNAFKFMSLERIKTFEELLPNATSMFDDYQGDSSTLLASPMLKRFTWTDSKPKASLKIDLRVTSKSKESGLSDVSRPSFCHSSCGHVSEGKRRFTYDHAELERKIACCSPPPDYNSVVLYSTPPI
# Flt-4 = Flt-4 (Homo sapiens, UniProt P35916); assay: cell-free enzyme assay Flt-4; assay type: biochemical
# Sequence of Flt-4 (P35916 25-1363, species assumed): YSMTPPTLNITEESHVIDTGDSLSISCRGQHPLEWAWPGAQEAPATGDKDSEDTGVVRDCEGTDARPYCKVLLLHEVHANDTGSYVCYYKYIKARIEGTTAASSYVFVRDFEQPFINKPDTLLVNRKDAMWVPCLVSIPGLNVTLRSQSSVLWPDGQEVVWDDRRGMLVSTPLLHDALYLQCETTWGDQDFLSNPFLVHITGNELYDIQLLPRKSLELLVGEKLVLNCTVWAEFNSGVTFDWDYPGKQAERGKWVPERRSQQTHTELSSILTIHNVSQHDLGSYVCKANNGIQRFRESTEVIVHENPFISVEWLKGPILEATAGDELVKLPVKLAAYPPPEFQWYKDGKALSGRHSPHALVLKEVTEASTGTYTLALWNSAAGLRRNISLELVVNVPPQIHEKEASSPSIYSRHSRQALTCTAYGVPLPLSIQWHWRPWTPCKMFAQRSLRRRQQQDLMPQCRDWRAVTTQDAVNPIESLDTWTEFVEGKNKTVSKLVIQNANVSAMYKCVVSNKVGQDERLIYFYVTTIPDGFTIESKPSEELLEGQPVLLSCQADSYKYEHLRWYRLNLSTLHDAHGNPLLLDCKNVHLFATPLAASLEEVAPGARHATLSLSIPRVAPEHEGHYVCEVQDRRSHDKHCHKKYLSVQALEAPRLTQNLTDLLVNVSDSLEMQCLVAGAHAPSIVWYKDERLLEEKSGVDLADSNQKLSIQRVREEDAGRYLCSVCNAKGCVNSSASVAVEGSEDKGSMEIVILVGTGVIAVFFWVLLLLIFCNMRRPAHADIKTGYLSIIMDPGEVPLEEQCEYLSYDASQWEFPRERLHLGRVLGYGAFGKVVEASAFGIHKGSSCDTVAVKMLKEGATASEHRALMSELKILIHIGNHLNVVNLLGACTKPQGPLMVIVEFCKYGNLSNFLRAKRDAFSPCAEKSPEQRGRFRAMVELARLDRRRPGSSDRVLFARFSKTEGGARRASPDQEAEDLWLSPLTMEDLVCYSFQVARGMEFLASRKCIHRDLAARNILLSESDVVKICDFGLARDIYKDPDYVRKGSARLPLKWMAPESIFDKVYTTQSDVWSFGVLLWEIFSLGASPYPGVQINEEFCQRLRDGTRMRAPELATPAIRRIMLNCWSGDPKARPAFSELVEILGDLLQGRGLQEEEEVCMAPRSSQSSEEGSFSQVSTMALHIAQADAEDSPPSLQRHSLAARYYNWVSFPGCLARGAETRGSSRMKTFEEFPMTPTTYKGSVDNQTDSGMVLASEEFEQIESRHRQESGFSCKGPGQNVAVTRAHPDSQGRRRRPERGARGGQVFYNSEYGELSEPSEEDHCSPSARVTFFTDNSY
# PKC gamma = PKC gamma (Homo sapiens, UniProt P05129); assay: cell-free enzyme assay PKC gamma; assay type: biochemical
# Flt-2 = Flt-2 (Homo sapiens, UniProt P11362); assay: cell-free enzyme assay Flt-2; assay type: biochemical
# Sequence of Flt-2 (P11362 22-822, species assumed): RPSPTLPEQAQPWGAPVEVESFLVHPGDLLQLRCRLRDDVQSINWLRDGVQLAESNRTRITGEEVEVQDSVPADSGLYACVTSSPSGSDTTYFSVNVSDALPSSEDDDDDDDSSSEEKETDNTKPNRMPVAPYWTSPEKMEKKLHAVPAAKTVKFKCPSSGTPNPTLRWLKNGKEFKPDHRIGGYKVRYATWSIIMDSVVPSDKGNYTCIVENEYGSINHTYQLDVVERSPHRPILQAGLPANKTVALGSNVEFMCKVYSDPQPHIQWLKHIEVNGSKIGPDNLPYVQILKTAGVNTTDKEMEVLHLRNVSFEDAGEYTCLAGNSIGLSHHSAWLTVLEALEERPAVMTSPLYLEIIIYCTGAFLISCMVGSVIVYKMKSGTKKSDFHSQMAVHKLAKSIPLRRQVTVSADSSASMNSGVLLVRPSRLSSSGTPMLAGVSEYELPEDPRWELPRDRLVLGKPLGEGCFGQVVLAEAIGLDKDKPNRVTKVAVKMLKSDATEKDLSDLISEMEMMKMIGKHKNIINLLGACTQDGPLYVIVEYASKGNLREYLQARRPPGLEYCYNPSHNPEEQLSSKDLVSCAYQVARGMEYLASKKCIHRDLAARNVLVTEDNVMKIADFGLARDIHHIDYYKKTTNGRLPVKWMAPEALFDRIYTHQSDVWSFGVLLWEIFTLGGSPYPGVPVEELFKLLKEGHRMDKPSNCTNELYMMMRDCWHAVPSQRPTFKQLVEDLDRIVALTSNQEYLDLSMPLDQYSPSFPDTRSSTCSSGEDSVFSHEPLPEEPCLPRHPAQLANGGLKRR
# KDR = KDR (Homo sapiens, UniProt P35968); assay: cell-free enzyme assay KDR; assay type: biochemical
# Sequence of KDR (P35968 20-1356, species assumed): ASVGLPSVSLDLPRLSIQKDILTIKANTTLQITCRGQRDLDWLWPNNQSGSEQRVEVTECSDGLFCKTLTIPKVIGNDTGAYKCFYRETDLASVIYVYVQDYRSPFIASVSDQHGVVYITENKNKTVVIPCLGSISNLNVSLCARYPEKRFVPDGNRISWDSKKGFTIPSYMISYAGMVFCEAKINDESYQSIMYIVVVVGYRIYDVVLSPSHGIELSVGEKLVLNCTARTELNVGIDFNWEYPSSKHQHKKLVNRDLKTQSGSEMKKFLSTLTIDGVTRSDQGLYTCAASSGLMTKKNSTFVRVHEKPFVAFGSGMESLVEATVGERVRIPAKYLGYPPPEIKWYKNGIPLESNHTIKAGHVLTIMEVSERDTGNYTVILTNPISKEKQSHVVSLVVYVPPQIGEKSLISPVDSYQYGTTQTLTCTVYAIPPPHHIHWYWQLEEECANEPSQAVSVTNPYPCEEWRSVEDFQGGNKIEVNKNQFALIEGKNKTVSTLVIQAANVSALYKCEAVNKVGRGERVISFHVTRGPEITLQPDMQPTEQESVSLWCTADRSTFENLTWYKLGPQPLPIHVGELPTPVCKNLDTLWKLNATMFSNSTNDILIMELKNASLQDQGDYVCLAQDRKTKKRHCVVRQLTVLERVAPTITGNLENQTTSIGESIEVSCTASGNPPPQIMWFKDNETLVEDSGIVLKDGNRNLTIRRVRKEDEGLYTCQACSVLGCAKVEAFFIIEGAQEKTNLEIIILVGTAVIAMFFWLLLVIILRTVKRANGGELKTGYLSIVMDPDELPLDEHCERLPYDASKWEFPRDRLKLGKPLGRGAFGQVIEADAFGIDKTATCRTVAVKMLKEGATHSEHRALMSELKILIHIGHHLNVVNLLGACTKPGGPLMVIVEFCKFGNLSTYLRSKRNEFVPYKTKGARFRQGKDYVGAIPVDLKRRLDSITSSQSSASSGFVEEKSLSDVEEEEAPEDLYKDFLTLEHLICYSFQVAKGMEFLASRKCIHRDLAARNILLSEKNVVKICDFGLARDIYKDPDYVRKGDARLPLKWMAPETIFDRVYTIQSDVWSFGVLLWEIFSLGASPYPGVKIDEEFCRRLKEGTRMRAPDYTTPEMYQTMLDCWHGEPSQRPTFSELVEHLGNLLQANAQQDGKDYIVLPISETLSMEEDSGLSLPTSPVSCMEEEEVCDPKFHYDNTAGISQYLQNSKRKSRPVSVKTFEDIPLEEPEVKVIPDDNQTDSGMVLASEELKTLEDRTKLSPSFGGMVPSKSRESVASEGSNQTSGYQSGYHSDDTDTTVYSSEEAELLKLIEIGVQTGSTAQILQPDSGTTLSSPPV
# PKC beta = PKC beta (Homo sapiens, UniProt P05771); assay: cell-free enzyme assay PKC beta; assay type: biochemical
# PKC theta = PKC theta (Homo sapiens, UniProt Q04759); assay: cell-free enzyme assay PKC theta; assay type: biochemical
smiles,measurement,setting,value
"CN1CCN(c2cc(C3=C(c4c[nH]c5ccccc45)C(=O)NC3=O)c(Cl)c(C(F)(F)F)c2)CC1 [Example 2, 3-[2-Chloro-5-(4-methyl-piperazin-1-yl)-3-trifluoromethyl-phenyl]-4-(1H-indol-3-yl)-pyrrole-2,5-dione]","activity in cell-free enzyme assay, Flt-3",Flt-3,<10 µM
same,"activity in cell-free enzyme assay, PKC epsilon",PKC epsilon,514 nM
same,concentration giving a clear reduction of Aβ secretion in the medium,[1],below 1 microM
same,"activity in cell-free enzyme assay, PKC alpha",PKC alpha,21 nM
same,effect on cellular viability,HEK/APPswe cells,without having any effect on cellular viability
same,"activity in cell-free enzyme assay, CDK-1",CDK-1,<10 µM
same,"activity in cell-free enzyme assay, Flt-1",Flt-1,<10 µM
same,"activity in cell-free enzyme assay, Flt-4",Flt-4,<10 µM
same,"activity in cell-free enzyme assay, PKC gamma",PKC gamma,<500 nM
same,"activity in cell-free enzyme assay, Flt-2",Flt-2,<10 µM
same,"activity in cell-free enzyme assay, KDR",KDR,<10 µM
same,"activity in cell-free enzyme assay, PKC beta",PKC beta,30 nM
same,"activity in cell-free enzyme assay, PKC theta",PKC theta,186 nM
